Patent US10681909B2, “Herbicidal triazoles” (FMC Corporation, priority 2014, dated 2020)

What was measured:
Assay in all cases: Test E preemergence
[1] = tested on: pigweed, palmer; type: in vivo, Amaranthus palmeri; settings: scale 0 to 100
From the text: (§1) Seeds of plant species selected from corn (Zea mays), soybean (Glycine max), lambsquarters (Chenopodium album), poinsettia, wild (wild poinsettia, Euphorbia heterophylla), pigweed, palmer (palmer pigweed, Amaranthus palmeri), waterhemp (common waterhemp, Amaranthus rudis), surinam grass (Brachiaria decumbens), crabgrass, large (large crabgrass, Digitaria sanguinalis), crabgrass, Brazilian (Brazilian crabgrass, Digitaria horizontalis), panicum, fall (fall panicum, Panicum dichotomiflorum), foxtail, giant (giant foxtail, Setaria faberii), foxtail, green (green foxtail, Setaria viridis), goosegrass (Eleusine indica), johnsongrass (Sorghum halepense), ragweed (common ragweed, Ambrosia elatior), barnyardgrass (Echinochloa crus-galli), sandbur (southern sandbur, Cenchrus echinatus), arrowleaf sida (Sida rhombifolia), ryegrass, Italian (Italian ryegrass, Lolium multiflorum), dayflower, VA (Virginia dayflower, Commelina virginica), field bindweed (Convolvulus arvensis), cocklebur (common cocklebur, Xanthium strumarium), morningglory (Ipomoea coccinea), nightshade (eastern black nightshade, Solanum ptycanthum), kochia (Kochia scoparia), nutsedge, yellow (yellow nutsedge, Cyperus esculentus), smartweed (ladysthumb smartweed, Polygonum persicaria), velvetleaf (Abutilon theophrasti), horseweed (Conyza canadensis), and beggarticks (hairy beggarticks, Bidens pilosa), were planted into a silt loam soil and treated preemergence with test chemicals formulated in a non-phytotoxic solvent mixture which included a surfactant.
(§2) At the same time, plants from these crop and weed species and also waterhemp_RES1, (ALS & Triazine resistant common waterhemp, Amaranthus rudis), and waterhemp_RES2, (ALS & HPPD resistant common waterhemp, Amaranthus rudis) were planted in pots containing Sunshine Redi-Earth® planting medium comprising spaghnum peat moss, vermiculite, starter nutrients and dolomitic limestone were treated with postemergence applications of test chemicals formulated in the same manner. Plants ranged in height from 2 to 18 cm for postemergence treatments (1- to 4-leaf stage). Treated plants and controls were maintained in a greenhouse for 14 to 21 d, after which time all species were compared to controls and visually evaluated. Plant response ratings, summarized in Table E, are based on a scale of 0 to 100 where 0 is no effect and 100 is complete control. A dash (-) response means no test result.

[2] = tested on: ragweed; type: in vivo, Ambrosia elatior; settings: scale 0 to 100
From the text: as §1, §2

[3] = tested on: crabgrass, Brazilian; type: in vivo, Digitaria horizontalis; settings: Brazil, scale 0 to 100
From the text: as §1, §2

[4] = tested on: goosegrass; type: in vivo, Eleusine indica; settings: scale 0 to 100
From the text: as §1, §2

[5] = tested on: morningglory; type: in vivo, Ipomoea coccinea; settings: scale 0 to 100
From the text: as §1, §2

[6] = tested on: soybean; type: in vivo, Glycine max; settings: scale 0 to 100
From the text: as §1, §2

[7] = tested on: waterhemp; type: in vivo, Amaranthus rudis; settings: scale 0 to 100
From the text: as §1, §2

[8] = tested on: surinam grass; type: in vivo, Brachiaria decumbens; settings: scale 0 to 100
From the text: as §1, §2

[9] = tested on: barnyardgrass; type: in vivo, Echinochloa crus-galli; settings: scale 0 to 100
From the text: as §1, §2

[10] = tested on: nightshade; type: in vivo, Solanum ptycanthum; settings: scale 0 to 100
From the text: as §1, §2

[11] = tested on: foxtail, giant; type: in vivo, Setaria faberii; settings: scale 0 to 100
From the text: as §1, §2

[12] = tested on: ryegrass, Italian; type: in vivo, Lolium multiflorum; settings: scale 0 to 100
From the text: as §1, §2

[13] = tested on: arrowleaf sida; type: in vivo, Sida rhombifolia; settings: scale 0 to 100
From the text: as §1, §2

With `CCOc1nc(-c2ccc(F)cc2)nn1Cc1ccnc(C(F)(F)F)c1` [Compound 8, 4-[[5-ethoxy-3-(4-fluorophenyl)-1H-1,2,4-triazol-1-yl]methyl]-2-(trifluoromethyl)pyridine] the Plant response rating ([1]; 62 g ai/ha) was 100, the Plant response rating ([1]; 125 g ai/ha) was 100 and the Plant response rating ([2]; 62 g ai/ha) was 80. For the same molecule, the Plant response rating ([2]; 125 g ai/ha) was 90, the Plant response rating ([3]; 62 g ai/ha) was 100 and the Plant response rating ([3]; 125 g ai/ha) was 100. The Plant response rating ([4]; 62 g ai/ha) was 100, the Plant response rating ([4]; 125 g ai/ha) was 100 and the Plant response rating ([5]; 62 g ai/ha) was 70. For the same molecule, the Plant response rating ([5]; 125 g ai/ha) was 100, the Plant response rating ([6]; 62 g ai/ha) was 50 and the Plant response rating ([6]; 125 g ai/ha) was 50. It also gave a Plant response rating ([7]; 62 g ai/ha) of 100, a Plant response rating ([7]; 125 g ai/ha) of 100 and a Plant response rating ([8]; 62 g ai/ha) of 50. It also gave a Plant response rating ([8]; 125 g ai/ha) of 75, a Plant response rating ([9]; 62 g ai/ha) of 75 and a Plant response rating ([9]; 125 g ai/ha) of 95. For the same molecule, the Plant response rating ([10]; 62 g ai/ha) was 98, the Plant response rating ([10]; 125 g ai/ha) was 100 and the Plant response rating ([11]; 62 g ai/ha) was 100. It also gave a Plant response rating ([11]; 125 g ai/ha) of 100, a Plant response rating ([12]; 62 g ai/ha) of 65 and a Plant response rating ([12]; 125 g ai/ha) of 100. For the same molecule, the Plant response rating ([13]; 62 g ai/ha) was 65 and the Plant response rating ([13]; 125 g ai/ha) was 98.
For `CCCc1nc(-c2ccc(F)cc2)nn1Cc1ccnc(C(F)(F)F)c1` [Compound 6, 4-[[3-(4-fluorophenyl)-5-propyl-1H-1,2,4-triazol-1-yl]methyl]-2-(trifluoromethyl)pyridine], the Plant response rating ([1]; 16 g ai/ha) was 50, the Plant response rating ([1]; 31 g ai/ha) was 75 and the Plant response rating ([1]; 62 g ai/ha) was 90. For the same molecule, the Plant response rating ([1]; 125 g ai/ha) was 100, the Plant response rating ([1]; 250 g ai/ha) was 100 and the Plant response rating ([2]; 16 g ai/ha) was 10. The Plant response rating ([2]; 31 g ai/ha) was 20, the Plant response rating ([2]; 62 g ai/ha) was 20 and the Plant response rating ([2]; 125 g ai/ha) was 50. For the same molecule, the Plant response rating ([2]; 250 g ai/ha) was 90, the Plant response rating ([3]; 16 g ai/ha) was 75 and the Plant response rating ([3]; 31 g ai/ha) was 80. It also gave a Plant response rating ([3]; 62 g ai/ha) of 100, a Plant response rating ([3]; 125 g ai/ha) of 100 and a Plant response rating ([3]; 250 g ai/ha) of 100. It also gave a Plant response rating ([4]; 16 g ai/ha) of 15, a Plant response rating ([4]; 31 g ai/ha) of 50 and a Plant response rating ([4]; 62 g ai/ha) of 50. It also gave a Plant response rating ([4]; 125 g ai/ha) of 75, a Plant response rating ([4]; 250 g ai/ha) of 100 and a Plant response rating ([5]; 31 g ai/ha) of 10. It also gave a Plant response rating ([5]; 62 g ai/ha) of 10, a Plant response rating ([5]; 125 g ai/ha) of 30 and a Plant response rating ([6]; 16 g ai/ha) of 0. For the same molecule, the Plant response rating ([6]; 31 g ai/ha) was 10, the Plant response rating ([6]; 62 g ai/ha) was 40 and the Plant response rating ([6]; 125 g ai/ha) was 50. It also gave a Plant response rating ([6]; 250 g ai/ha) of 70, a Plant response rating ([7]; 31 g ai/ha) of 80 and a Plant response rating ([7]; 62 g ai/ha) of 100. For the same molecule, the Plant response rating ([7]; 125 g ai/ha) was 100, the Plant response rating ([7]; 250 g ai/ha) was 100 and the Plant response rating ([8]; 16 g ai/ha) was 20. It also gave a Plant response rating ([8]; 31 g ai/ha) of 40, a Plant response rating ([8]; 62 g ai/ha) of 40 and a Plant response rating ([8]; 125 g ai/ha) of 50. For the same molecule, the Plant response rating ([8]; 250 g ai/ha) was 50, the Plant response rating ([9]; 16 g ai/ha) was 10 and the Plant response rating ([9]; 31 g ai/ha) was 40. It also gave a Plant response rating ([9]; 62 g ai/ha) of 50, a Plant response rating ([9]; 125 g ai/ha) of 60 and a Plant response rating ([9]; 250 g ai/ha) of 75. The Plant response rating ([10]; 16 g ai/ha) was 15, the Plant response rating ([10]; 31 g ai/ha) was 70 and the Plant response rating ([10]; 62 g ai/ha) was 90. The Plant response rating ([10]; 125 g ai/ha) was 100, the Plant response rating ([10]; 250 g ai/ha) was 100 and the Plant response rating ([11]; 16 g ai/ha) was 50. The Plant response rating ([11]; 62 g ai/ha) was 60, the Plant response rating ([11]; 125 g ai/ha) was 95 and the Plant response rating ([11]; 250 g ai/ha) was 100. For the same molecule, the Plant response rating ([12]; 16 g ai/ha) was 10, the Plant response rating ([12]; 31 g ai/ha) was 40 and the Plant response rating ([12]; 62 g ai/ha) was 50. For the same molecule, the Plant response rating ([12]; 125 g ai/ha) was 70, the Plant response rating ([12]; 250 g ai/ha) was 80 and the Plant response rating ([13]; 16 g ai/ha) was 0. The Plant response rating ([13]; 31 g ai/ha) was 0, the Plant response rating ([13]; 62 g ai/ha) was 10 and the Plant response rating ([13]; 125 g ai/ha) was 30. The Plant response rating ([13]; 250 g ai/ha) was 70.
